Where a name gives a salt, the structure may show the parent alone.
Compound `Cc1nc2cc(OCCOc3nccnc3N3CCNCC3)ccc2s1` (as salt: hydrochloride) [Example 143, 2-Methyl-5-(2-{[3-(1-piperazinyl)-2-pyrazinyl]oxy}ethoxy)-1,3-benzothiazole] has a melting point of 188 to 190 °C. Work on `c1cncc(OCCOc2nc3cscc3nc2N2CCNCC2)c1` (as salt: maleate) [Example 165, 2-[2-(3-Pyridinyloxy)ethoxy]3-(1-piperazinyl)thieno[3,4-b]pyrazine] yielded a melting point of 152 to 156 °C. For `Nc1nc2c(OCCOc3nccnc3N3CCNCC3)cccc2o1` (as salt: fumarate) [Example 21, 4-(2-{[3-(1-piperazinyl)-2-pyrazinyl]oxy}ethoxy)-1,3-benzoxazol-2-amine], the melting point was 138 to 140 °C. Compound `c1cc(OCCOc2nccnc2N2CCNCC2)c2c(c1)OCCO2` [Example 79, 2-(2,3-Dihydro-1,4-benzodioxin-5-yloxy)ethyl 3-(1-piperazinyl)-2-pyrazinyl ether] has a melting point of 98 to 99 °C. In the case of `Nc1cc(OCCOc2nccnc2N2CCNCC2)c2ccccc2n1` (as salt: hydrochloride) [Example 160, 4-(2-{[3-(1-piperazinyl)-2-pyrazinyl]oxy}ethoxy)-2-quinolinamine], the melting point is reported as 156 °C (dec.). With `c1cnc2c(OCCOc3nccnc3N3CCNCC3)cccc2c1` [Example 138, 2-(8-Quinolinyloxy)ethyl 3-(1-piperazinyl)-2-pyrazinyl ether] the melting point was 98 to 100 °C. Work on `c1cnc(N2CCNCC2)c(OCCOc2ccsc2)n1` (as salt: hydrochloride) [Example 157, 2-(3-Thienyloxy)ethyl 3-(1-piperazinyl)-2-pyrazinyl ether] yielded a melting point of 75 to 85 °C. With `Clc1cc2nc(OCCOc3cccnc3)c(N3CCNCC3)nc2cc1Cl` (as salt: maleate) [Example 164, 2-[2-(3-Pyridinyloxy)ethoxy]-3-(1-piperazinyl)-6,7-dichloroquinoxaline] the melting point was 187 to 189 °C. In the case of `COc1ccc(OCCOc2nccnc2N2CCNCC2)cn1` (as salt: maleate) [Example 204, 2-{2-[(6-Methoxy-3-pyridinyl)oxy]ethoxy}-3-(1-piperazinyl)pyrazine], the melting point is reported as 151.8 to 152.6 °C. `c1ccc2c(OCCOc3nccnc3N3CCNCC3)csc2c1` (as salt: maleate) [Example 156, 2-[2-(1-Benzothien-3-yloxy)ethoxy]-3-(1-piperazinyl)pyrazine] showed a melting point of 147 to 149 °C. In the case of `c1ccc2c(c1)OC(COc1nccnc1N1CCNCC1)CS2` (stereo not drawn) (as salt: fumarate) [Example 132, 2-(2,3-Dihydro-1,4-benzoxathiin-2-ylmethoxy)-3-(1-piperazinyl)pyrazine], the melting point is reported as 178 to 179 °C. Compound `c1cncc(CCCOc2nccnc2N2CCNCC2)c1` (as salt: maleate) [Example 126, 2-(1-piperazinyl)-3-[3-(3-pyridinyl)propoxy]pyrazine] has a melting point of 128 to 130 °C. Work on `c1ccc2c(c1)CCC(COc1nc3ccccc3nc1N1CCNCC1)O2` (stereo not drawn) (as salt: salt) [Example 168, 2-(3,4-Dihydro-2H-chromen-2-ylmethoxy)-3-(1-piperazinyl)quinoxaline] yielded a melting point of 202 to 204 °C. Work on `Fc1cccc(OCCOc2nccnc2N2CCNCC2)c1` (as salt: maleate) [Example 101, 2-[2-(3-Fluorophenoxy)ethoxy]-3-(1-piperazinyl)pyrazine] yielded a melting point of 141 to 143 °C. `c1ccc2nc(N3CCNCC3)c(OCCOc3cncnc3)nc2c1` [Example 166, 2-[2-(5-Pyrimidinyloxy)ethoxy]-3-(1-piperazinyl)quinoxaline] gave a melting point of 115 to 117 °C. `Clc1ccc(OCCOc2nccnc2N2CCNCC2)cn1` (as salt: maleate) [Example 203, 2-{2-[(6-Chloro-3-pyridinyl)oxy]ethoxy}-3-(1-piperazinyl)pyrazine] showed a melting point of 145.9 to 146.3 °C. For `CSc1ncccc1OCCOc1nccnc1N1CCNC[C@H]1C` (as salt: fumarate) [Example 198, (2R)-2-Methyl-1-[3-(2-{[2-(methylsulfanyl)-3-pyridinyl]oxy}ethoxy)-2-pyrazinyl]piperazine], the melting point was 179 °C. `c1cnc2cc(OCCOc3nccnc3N3CCNCC3)ccc2c1` (as salt: maleate) [Example 137, 2-(7-Quinolinyloxy)ethyl 3-(1-piperazinyl)-2-pyrazinyl ether] gave a melting point of 156 to 158 °C. `Fc1cc(F)c(F)c(OCCOc2nccnc2N2CCNCC2)c1` (as salt: fumarate) [Example 106, 2-[2-(2,3,5-Trifluorophenoxy)ethoxy]-3-(1-piperazinyl)pyrazine] gave a melting point of 158 to 159 °C. For `CC1(C)Cc2cccc(OCCOc3nccnc3N3CCNCC3)c2O1` (as salt: maleate) [Example 158, 2-(2,3-Dihydro-2,2-dimethyl-7-benzofuranyloxy)ethyl 3-(1-piperazinyl)-2-pyrazinyl ether], the melting point was 156 to 157 °C. Work on `C[C@@H]1CNCCN1c1nccnc1OCCOc1cccnc1Br` (as salt: fumarate) [Example 196, (2R)-1-(3-{2-[(2-Bromo-3-pyridinyl)oxy]ethoxy}-2-pyrazinyl)-2-methylpiperazine] yielded a melting point of 154 °C. With `COc1ccc(C)cc1OCCOc1nccnc1N1CCNCC1` (as salt: maleate) [Example 144, 2-[2-(2-Methoxy-5-methylphenoxy)ethoxy]-3-(1-piperazinyl)pyrazine] the melting point was 148 to 149 °C. Work on `c1cnc(N2CCNCC2)c(OCC2CCCO2)n1` (stereo not drawn) (as salt: hydrochloride) [Example 124, 2-(1-Piperazinyl)-3-(tetrahydro-2-furanylmethoxy)pyrazine] yielded a melting point of 130 to 136 °C. In the case of `FC(F)(F)c1ccccc1OCCOc1nccnc1N1CCNCC1` [Example 91, 2-(2-Trifluoromethylphenoxy)ethyl 3-(1-piperazinyl)-2-pyrazinyl ether], the melting point is reported as 79 to 80 °C. For `c1cc(OCCOc2nccnc2N2CCNCC2)ccn1` (as salt: hydrochloride) [Example 151, 2-(4-Pyridyloxy)ethyl 3-(1-piperazinyl)-2-pyrazinyl ether], the melting point was 170 °C (dec.). Work on `c1ccc2c(c1)CCC(COc1nccnc1N1CCNCC1)O2` (stereo not drawn) (as salt: hydrochloride) [Example 133, 2-(3,4-Dihydro-2H-chromen-2-ylmethoxy)-3-(1-piperazinyl)pyrazine] yielded a melting point of 170 to 175 °C. For `c1cnc(N2CCNCC2)c(OCCOc2ccc3cc[nH]c3c2)n1` [Example 142, 6-(2-{[3-(1-piperazinyl)-2-pyrazinyl]oxy}ethoxy)-1H-indole], the melting point was 111 to 113 °C. `c1coc(COc2nccnc2N2CCNCC2)c1` (as salt: maleate) [Example 2, 2-(2-Furylmethoxy)-3-(1-piperazinyl)pyrazine] showed a melting point of 118 to 120 °C. With `Nc1cccc2ccc(OCCOc3nccnc3N3CCNCC3)cc12` (as salt: maleate) [Example 145, 7-(2-{[3-(1-piperazinyl)-2-pyrazinyl]oxy}ethoxy)-1-naphthylamine] the melting point was 120 °C (dec.). `Fc1cccc(OCCOc2nccnc2N2CCNCC2)c1F` (as salt: fumarate) [Example 105, 2-[2-(2,3-Difluorophenoxy)ethoxy]-3-(1-piperazinyl)pyrazine] gave a melting point of 125 to 130 °C. `c1ccc(-c2ccccc2OCCOc2nccnc2N2CCNCC2)cc1` [Example 97, 2-[(1,1′Biphenyl)-2-yloxy]ethyl 3-(1-piperazinyl)-2-pyrazinyl ether] gave a melting point of 101 to 103 °C. Compound `Fc1cc2nc(OCCOc3cccnc3)c(N3CCNCC3)nc2cc1F` (as salt: maleate) [Example 163, 2-[2-(3-Pyridinyloxy)ethoxy]-3-(1-piperazinyl)-6,7-difluoroquinoxaline] has a melting point of 110 to 115 °C. `CC(=O)Nc1cccc(OCCOc2nccnc2N2CCNCC2)c1` (as salt: maleate) [Example 119, 2-[2-(3-Acetamidophenoxy)ethoxy]-3-(1-piperazinyl)pyrazine] gave a melting point of 154 to 155 °C. With `c1cc(OCCOc2nccnc2N2CCNCC2)c2cccnc2c1` (as salt: maleate) [Example 135, 2-(5-Quinolinyloxy)ethyl 3-(1-piperazinyl)-2-pyrazinyl ether] the melting point was 132 to 135 °C. In the case of `Cc1ncccc1OCCOc1nccnc1N1CCNCC1` (as salt: hydrochloride) [Example 154, 2-(2-Methyl-3-pyridyloxy)ethyl 3-(1-piperazinyl)-2-pyrazinyl ether], the melting point is reported as 50 °C (dec.). Work on `c1cc2c(c(OCCOc3nccnc3N3CCNCC3)c1)OCC2` (as salt: maleate) [Example 186, 2-(2,3-Dihydrobenzofuran-7-yloxy)ethyl 3-(1-piperazinyl)-2-pyrazinyl ether] yielded a melting point of 149 to 154 °C. `Clc1ccc(OCCOc2nc3ccccc3nc2N2CCNCC2)cc1` [Example 39, 2-[2-(4-Chlorophenoxy)ethoxy]-3-(1-piperazinyl)quinoxaline] gave a melting point of 108 to 112 °C. With `COCc1cccc(OCCOc2nccnc2N2CCNCC2)c1` (as salt: maleate) [Example 109, 2-{2-[3-(Methoxymethyl)phenoxy]ethoxy}-3-(1-piperazinyl)pyrazine] the melting point was 114 to 115 °C. Compound `C[C@@H]1CNCCN1c1nccnc1OCCOc1cccnc1` (as salt: hydrochloride) [Example 173, (2R)-Methyl-1-{3-[2-(3-pyridinyloxy)ethoxy]-2-pyrazinyl}piperazine] has a melting point of 180 to 183 °C. Compound `Brc1ncccc1OCCOc1nccnc1N1CCNCC1` (as salt: fumarate) [Example 195, 2-{2-[(2-Bromo-3-pyridinyl)oxy]ethoxy}-3-(1-piperazinyl)pyrazine] has a melting point of 202 °C. `COc1ccc(F)cc1OCCOc1nccnc1N1CCNCC1` (as salt: fumarate) [Example 100, 2-[2-(5-Fluoro-2-methoxyphenoxy)ethoxy]-3-(1-piperazinyl)pyrazine] gave a melting point of 172 to 176 °C. Work on `c1ccc(Nc2cccc(OCCOc3nccnc3N3CCNCC3)c2)cc1` (as salt: fumarate) [Example 107, N-Phenyl-3-(2-{[3-(1-piperazinyl)-2-pyrazinyl]oxy}ethoxy)aniline] yielded a melting point of 78 to 81 °C.
